Source: article PMC10046369, “Low-Affinity/High-Selectivity Dopamine Transport Inhibition Sufficient to Rescue Cognitive Functions in the Aging Rat” (Biomolecules, 2023)

What was measured:
Test in all cases: biochemical
Set-up in all cases: KINOMEscan competition binding panel, per cent of control
Settings in all cases: read-out: %Ctrl @ 2800nM
ALK(L1196M) = ALK(L1196M) (Homo sapiens, UniProt Q9UM73, L1196M)
Procedure, shortened: (§1)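 Competition binding panel (KINOMEscan) across 450 human kinases and disease-relevant mutants, run to the contractor's standard protocol. Values are % control: (test signal − positive control signal)/(negative control signal − positive control signal) × 100, with lower values indicating stronger binding.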

MUSK = MUSK (Homo sapiens, UniProt O15146)
Procedure, shortened: as §1

GSK3A = GSK3A (Homo sapiens, UniProt P49840)
Procedure, shortened: as §1

QSK = target: T1, QSK (Homo sapiens, UniProt Q9Y2K2)
T1 construct: gene SIK3
Procedure, shortened: as §1

PDGFRB = PDGFRB (Homo sapiens, UniProt P09619)
Procedure, shortened: as §1

MARK2 = MARK2 (Homo sapiens, UniProt Q7KZI7)
Procedure, shortened: as §1

LRRK2 = LRRK2 (Homo sapiens, UniProt Q5S007)
Procedure, shortened: as §1

IKK-alpha = target: T2, IKK-alpha (Homo sapiens, UniProt O15111)
T2 construct: gene CHUK
Procedure, shortened: as §1

SGK3 = SGK3 (Homo sapiens, UniProt Q96BR1)
Procedure, shortened: as §1

PIK3CA(E545K) = PIK3CA(E545K) (Homo sapiens, UniProt P42336, E545K)
Procedure, shortened: as §1

DYRK2 = DYRK2 (Homo sapiens, UniProt Q92630)
Procedure, shortened: as §1

CDK4 = CDK4 (Homo sapiens, UniProt P11802)
Procedure, shortened: as §1

TAOK1 = TAOK1 (Homo sapiens, UniProt Q7L7X3)
Procedure, shortened: as §1

EGFR(S752-I759del) = EGFR(S752-I759del) (Homo sapiens, UniProt P00533, DEL752-759)
Procedure, shortened: as §1

ABL1-phosphorylated = target: T3, ABL1-phosphorylated (Homo sapiens, UniProt P00519)
T3 construct: phosphorylated
Procedure, shortened: as §1

DCAMKL3 = target: T4, DCAMKL3 (Homo sapiens, UniProt Q9C098)
T4 construct: gene DCLK3
Procedure, shortened: as §1

MAK = MAK (Homo sapiens, UniProt P20794)
Procedure, shortened: as §1

[1] = target: EGFR(L747-E749del, A750P) (Homo sapiens, UniProt P00533, A750P/DEL747-749)
Procedure, shortened: as §1

CAMKK1 = CAMKK1 (Homo sapiens, UniProt Q8N5S9)
Procedure, shortened: as §1

ROCK2 = ROCK2 (Homo sapiens, UniProt O75116)
Procedure, shortened: as §1

RIPK5 = target: T5, RIPK5 (Homo sapiens, UniProt Q6XUX3)
T5 construct: gene DSTYK
Procedure, shortened: as §1

PIK3CA(Q546K) = PIK3CA(Q546K) (Homo sapiens, UniProt P42336, Q546K)
Procedure, shortened: as §1

MAPKAPK2 = MAPKAPK2 (Homo sapiens, UniProt P49137)
Procedure, shortened: as §1

MYLK4 = MYLK4 (Homo sapiens, UniProt Q86YV6)
Procedure, shortened: as §1

PAK4 = PAK4 (Homo sapiens, UniProt O96013)
Procedure, shortened: as §1

BUB1 = BUB1 (Homo sapiens, UniProt O43683)
Procedure, shortened: as §1

PAK4, sequence (O96013 whole entry): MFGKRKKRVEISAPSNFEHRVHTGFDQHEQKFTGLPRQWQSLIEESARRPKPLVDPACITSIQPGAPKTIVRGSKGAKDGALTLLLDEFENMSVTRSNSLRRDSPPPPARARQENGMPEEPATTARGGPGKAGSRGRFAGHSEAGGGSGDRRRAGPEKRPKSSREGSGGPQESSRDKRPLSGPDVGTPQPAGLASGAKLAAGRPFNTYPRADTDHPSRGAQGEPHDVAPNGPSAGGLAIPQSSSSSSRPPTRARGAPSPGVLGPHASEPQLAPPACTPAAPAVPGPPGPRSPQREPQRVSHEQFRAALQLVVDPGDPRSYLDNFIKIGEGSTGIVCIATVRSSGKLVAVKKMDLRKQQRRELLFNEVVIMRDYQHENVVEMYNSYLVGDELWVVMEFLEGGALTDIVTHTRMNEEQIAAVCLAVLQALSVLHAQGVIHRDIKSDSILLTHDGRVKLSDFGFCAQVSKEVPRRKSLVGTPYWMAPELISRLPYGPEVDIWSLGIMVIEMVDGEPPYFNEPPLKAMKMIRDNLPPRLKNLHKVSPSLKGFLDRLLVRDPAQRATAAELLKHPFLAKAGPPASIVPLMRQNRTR
GSK3A, sequence (P49840 whole entry): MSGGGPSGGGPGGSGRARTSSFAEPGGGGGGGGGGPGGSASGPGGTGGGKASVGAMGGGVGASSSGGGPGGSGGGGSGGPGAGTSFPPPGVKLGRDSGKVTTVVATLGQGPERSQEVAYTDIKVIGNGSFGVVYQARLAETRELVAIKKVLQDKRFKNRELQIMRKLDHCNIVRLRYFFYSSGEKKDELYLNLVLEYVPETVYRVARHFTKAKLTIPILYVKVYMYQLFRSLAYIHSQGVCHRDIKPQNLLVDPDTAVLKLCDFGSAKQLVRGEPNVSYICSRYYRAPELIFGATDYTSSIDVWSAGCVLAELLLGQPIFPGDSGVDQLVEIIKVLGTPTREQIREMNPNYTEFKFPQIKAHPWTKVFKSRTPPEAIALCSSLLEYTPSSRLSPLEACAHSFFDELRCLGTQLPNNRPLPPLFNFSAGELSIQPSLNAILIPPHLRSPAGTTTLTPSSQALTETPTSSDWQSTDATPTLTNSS
MAK, sequence (P20794 whole entry): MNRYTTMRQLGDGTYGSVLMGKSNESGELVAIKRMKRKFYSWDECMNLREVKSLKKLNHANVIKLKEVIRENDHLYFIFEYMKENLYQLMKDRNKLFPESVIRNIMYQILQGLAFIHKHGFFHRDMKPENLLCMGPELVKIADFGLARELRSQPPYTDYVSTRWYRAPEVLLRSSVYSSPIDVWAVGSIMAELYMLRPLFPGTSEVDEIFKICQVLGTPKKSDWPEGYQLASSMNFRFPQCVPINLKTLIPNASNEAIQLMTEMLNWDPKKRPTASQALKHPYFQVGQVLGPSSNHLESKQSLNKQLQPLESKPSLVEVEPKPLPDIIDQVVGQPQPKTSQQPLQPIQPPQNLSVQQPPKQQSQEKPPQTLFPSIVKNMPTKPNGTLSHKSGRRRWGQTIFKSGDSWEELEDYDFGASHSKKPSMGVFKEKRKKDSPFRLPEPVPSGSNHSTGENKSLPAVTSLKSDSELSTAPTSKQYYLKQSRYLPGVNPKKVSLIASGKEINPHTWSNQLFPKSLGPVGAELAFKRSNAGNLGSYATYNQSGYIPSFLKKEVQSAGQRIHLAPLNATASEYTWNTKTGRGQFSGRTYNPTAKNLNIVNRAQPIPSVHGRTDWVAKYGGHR
PDGFRB, sequence (P09619 whole entry): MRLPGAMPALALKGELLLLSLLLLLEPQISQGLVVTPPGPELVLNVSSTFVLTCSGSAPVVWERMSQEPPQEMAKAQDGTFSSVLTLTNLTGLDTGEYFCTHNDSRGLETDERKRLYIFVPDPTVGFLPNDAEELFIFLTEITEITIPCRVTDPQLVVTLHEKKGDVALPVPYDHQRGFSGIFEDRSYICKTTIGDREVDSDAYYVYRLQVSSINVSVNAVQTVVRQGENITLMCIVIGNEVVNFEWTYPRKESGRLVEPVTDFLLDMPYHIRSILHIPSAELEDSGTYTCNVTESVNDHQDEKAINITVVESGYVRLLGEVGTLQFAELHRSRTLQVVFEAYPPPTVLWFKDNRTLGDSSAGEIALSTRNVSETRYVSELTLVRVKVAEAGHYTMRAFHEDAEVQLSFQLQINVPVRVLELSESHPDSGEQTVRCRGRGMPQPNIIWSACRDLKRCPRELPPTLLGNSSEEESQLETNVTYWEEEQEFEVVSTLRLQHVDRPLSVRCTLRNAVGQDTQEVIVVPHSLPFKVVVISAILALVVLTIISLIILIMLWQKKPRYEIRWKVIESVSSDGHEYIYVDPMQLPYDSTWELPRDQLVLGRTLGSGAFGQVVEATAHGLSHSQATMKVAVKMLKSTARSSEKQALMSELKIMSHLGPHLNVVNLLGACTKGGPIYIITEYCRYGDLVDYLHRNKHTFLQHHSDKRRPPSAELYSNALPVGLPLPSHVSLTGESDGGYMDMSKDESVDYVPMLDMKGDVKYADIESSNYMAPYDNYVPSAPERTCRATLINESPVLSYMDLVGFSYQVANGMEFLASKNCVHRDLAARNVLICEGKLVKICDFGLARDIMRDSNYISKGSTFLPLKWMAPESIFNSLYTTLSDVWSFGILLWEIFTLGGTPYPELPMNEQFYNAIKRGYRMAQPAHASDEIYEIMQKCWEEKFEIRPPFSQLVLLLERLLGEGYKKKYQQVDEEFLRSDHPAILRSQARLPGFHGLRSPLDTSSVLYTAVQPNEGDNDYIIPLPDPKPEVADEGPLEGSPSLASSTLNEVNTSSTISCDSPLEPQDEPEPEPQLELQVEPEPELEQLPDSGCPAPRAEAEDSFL
T2 sequence (O15111 whole entry): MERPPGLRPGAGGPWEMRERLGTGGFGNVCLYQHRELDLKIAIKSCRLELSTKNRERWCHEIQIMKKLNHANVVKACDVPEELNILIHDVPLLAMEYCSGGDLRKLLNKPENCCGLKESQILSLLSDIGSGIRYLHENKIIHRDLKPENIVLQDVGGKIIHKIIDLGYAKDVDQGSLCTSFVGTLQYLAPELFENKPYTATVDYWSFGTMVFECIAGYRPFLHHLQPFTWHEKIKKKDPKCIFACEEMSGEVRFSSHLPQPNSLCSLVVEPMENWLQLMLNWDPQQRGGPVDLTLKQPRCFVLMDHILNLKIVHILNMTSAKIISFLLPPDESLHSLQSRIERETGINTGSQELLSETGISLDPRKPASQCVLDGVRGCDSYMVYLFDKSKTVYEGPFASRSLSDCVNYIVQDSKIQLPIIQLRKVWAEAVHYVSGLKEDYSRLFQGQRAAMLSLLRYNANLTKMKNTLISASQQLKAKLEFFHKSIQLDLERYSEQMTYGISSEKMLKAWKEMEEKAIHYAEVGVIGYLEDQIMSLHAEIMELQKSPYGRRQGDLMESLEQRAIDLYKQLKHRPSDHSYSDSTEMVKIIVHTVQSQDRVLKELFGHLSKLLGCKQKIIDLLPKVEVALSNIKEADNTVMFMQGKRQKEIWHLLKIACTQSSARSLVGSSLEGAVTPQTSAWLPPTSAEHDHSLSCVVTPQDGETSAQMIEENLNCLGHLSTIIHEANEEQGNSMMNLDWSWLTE
MUSK, sequence (O15146 whole entry): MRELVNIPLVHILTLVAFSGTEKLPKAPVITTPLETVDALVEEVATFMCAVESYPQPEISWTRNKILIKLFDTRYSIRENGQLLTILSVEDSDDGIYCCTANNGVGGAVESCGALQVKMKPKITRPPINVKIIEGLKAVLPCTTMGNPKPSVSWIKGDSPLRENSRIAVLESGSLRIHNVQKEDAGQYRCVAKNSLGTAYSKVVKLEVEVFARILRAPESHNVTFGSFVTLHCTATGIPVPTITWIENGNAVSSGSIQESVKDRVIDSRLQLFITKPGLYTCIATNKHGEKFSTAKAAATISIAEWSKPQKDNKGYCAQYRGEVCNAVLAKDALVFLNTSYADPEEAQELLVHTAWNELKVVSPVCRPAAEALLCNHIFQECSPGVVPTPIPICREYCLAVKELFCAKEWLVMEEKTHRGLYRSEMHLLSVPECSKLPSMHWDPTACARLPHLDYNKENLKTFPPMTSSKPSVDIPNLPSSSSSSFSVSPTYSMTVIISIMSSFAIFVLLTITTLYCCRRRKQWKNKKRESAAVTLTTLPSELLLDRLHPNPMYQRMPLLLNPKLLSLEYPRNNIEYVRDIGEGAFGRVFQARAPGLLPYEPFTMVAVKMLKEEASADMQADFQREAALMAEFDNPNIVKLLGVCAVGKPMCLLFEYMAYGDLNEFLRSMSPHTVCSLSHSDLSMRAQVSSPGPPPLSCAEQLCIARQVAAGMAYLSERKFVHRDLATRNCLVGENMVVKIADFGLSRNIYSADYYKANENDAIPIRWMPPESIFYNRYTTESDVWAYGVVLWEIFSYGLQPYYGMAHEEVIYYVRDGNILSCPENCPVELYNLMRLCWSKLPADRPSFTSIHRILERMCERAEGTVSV
MAPKAPK2, sequence (P49137 whole entry): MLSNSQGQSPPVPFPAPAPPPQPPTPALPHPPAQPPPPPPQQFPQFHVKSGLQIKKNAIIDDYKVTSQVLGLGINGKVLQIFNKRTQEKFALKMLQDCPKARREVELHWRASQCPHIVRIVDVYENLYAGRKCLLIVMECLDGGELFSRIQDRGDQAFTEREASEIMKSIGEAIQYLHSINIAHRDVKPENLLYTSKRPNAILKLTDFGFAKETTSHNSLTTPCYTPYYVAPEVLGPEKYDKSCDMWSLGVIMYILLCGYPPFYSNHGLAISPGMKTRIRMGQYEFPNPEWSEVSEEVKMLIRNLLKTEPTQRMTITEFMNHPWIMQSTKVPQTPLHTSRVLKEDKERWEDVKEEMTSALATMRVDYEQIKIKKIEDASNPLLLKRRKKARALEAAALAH

[O-][S@@+](Cc1cncs1)C(c1ccccc1)c1ccccc1 [S-CE-123, (S)-5-((Benzhydrylsulfinyl)Methyl)Thiazole]
remaining binding at 2.8 µM (ALK(L1196M)): 100%
remaining binding at 2.8 µM (MUSK): 100%
remaining binding at 2.8 µM (GSK3A): 99%
remaining binding at 2.8 µM (QSK): 93%
remaining binding at 2.8 µM (PDGFRB): 99%
remaining binding at 2.8 µM (MARK2): 100%
remaining binding at 2.8 µM (LRRK2): 100%
remaining binding at 2.8 µM (IKK-alpha): 100%
remaining binding at 2.8 µM (SGK3): 100%
remaining binding at 2.8 µM (PIK3CA(E545K)): 82%
remaining binding at 2.8 µM (DYRK2): 86%
remaining binding at 2.8 µM (CDK4): 100%
remaining binding at 2.8 µM (TAOK1): 100%
remaining binding at 2.8 µM (EGFR(S752-I759del)): 66%
remaining binding at 2.8 µM (ABL1-phosphorylated): 100%
remaining binding at 2.8 µM (DCAMKL3): 96%
remaining binding at 2.8 µM (MAK): 94%
remaining binding at 2.8 µM [1]: 93%
remaining binding at 2.8 µM (CAMKK1): 95%
remaining binding at 2.8 µM (ROCK2): 100%
remaining binding at 2.8 µM (RIPK5): 95%
remaining binding at 2.8 µM (PIK3CA(Q546K)): 97%
remaining binding at 2.8 µM (MAPKAPK2): 99%
remaining binding at 2.8 µM (MYLK4): 89%
remaining binding at 2.8 µM (PAK4): 98%
remaining binding at 2.8 µM (BUB1): 100%
